Settings: Liquid; for viscosity: Falling or rolling sphere viscometry; for mass density: Vibrating tube method; for thermal conductivity: Hot wire method

CCCCCCCC[n+]1ccn(C)c1.F[B-](F)(F)F [1-methyl-3-octylimidazolium tetrafluoroborate]
Settings	mass density [kg/m3]	thermal conductivity [W/m/K]	viscosity [mPa·s]
293.15 K, 100 kPa	1107.1	–	472
293.15 K, 5000 kPa	1109.7	–	510
293.15 K, 10000 kPa	1112.2	–	537
293.15 K, 15000 kPa	1114.6	–	572
293.15 K, 20000 kPa	1117	–	649
294.2 K, 100 kPa	–	0.164	–
294.2 K, 10000 kPa	–	0.165	–
294.2 K, 20000 kPa	–	0.167	–
313.15 K, 100 kPa	1093.5	–	146
313.15 K, 5000 kPa	1096.1	–	157
313.15 K, 10000 kPa	1098.8	–	166
313.15 K, 15000 kPa	1101.4	–	175
313.15 K, 20000 kPa	1103.9	–	188
314.3 K, 100 kPa	–	0.163	–
314.3 K, 10000 kPa	–	0.164	–
314.3 K, 20000 kPa	–	0.166	–
333.15 K, 100 kPa	1079.8	–	58
333.15 K, 5000 kPa	1082.6	–	60.6
333.15 K, 10000 kPa	1085.4	–	63.6
333.15 K, 15000 kPa	1088.1	–	66.4
333.15 K, 20000 kPa	1090.8	–	69.8
334.4 K, 100 kPa	–	0.16	–
334.4 K, 10000 kPa	–	0.162	–
334.4 K, 20000 kPa	–	0.164	–
353.15 K, 100 kPa	1066.8	–	28.1
353.15 K, 5000 kPa	1069.7	–	29.8
353.15 K, 10000 kPa	1072.7	–	30.8
353.15 K, 15000 kPa	1075.5	–	32.1
353.15 K, 20000 kPa	1078.3	–	33.4

CCCCCCn1cc[n+](C)c1.F[B-](F)(F)F [1-hexyl-3-methylimidazolium tetrafluoroborate]
Settings	mass density [kg/m3]	thermal conductivity [W/m/K]	viscosity [mPa·s]
293.15 K, 100 kPa	1148.6	–	286
293.15 K, 5000 kPa	1151.2	–	302
293.15 K, 10000 kPa	1153.5	–	318
293.15 K, 15000 kPa	1155.8	–	345
293.15 K, 20000 kPa	1158.2	–	372
294.2 K, 100 kPa	–	0.166	–
294.2 K, 10000 kPa	–	0.168	–
294.2 K, 20000 kPa	–	0.17	–
313.15 K, 100 kPa	1134.1	–	92.9
313.15 K, 5000 kPa	1136.7	–	98.7
313.15 K, 10000 kPa	1139.4	–	104
313.15 K, 15000 kPa	1141.8	–	109
313.15 K, 20000 kPa	1144.2	–	115
314.3 K, 100 kPa	–	0.165	–
314.3 K, 10000 kPa	–	0.168	–
314.3 K, 20000 kPa	–	0.169	–
333.15 K, 100 kPa	1120.5	–	40.4
333.15 K, 5000 kPa	1123.1	–	42.5
333.15 K, 10000 kPa	1125.8	–	44.4
333.15 K, 15000 kPa	1128.5	–	45.5
333.15 K, 20000 kPa	1131.1	–	48.2
334.4 K, 100 kPa	–	0.164	–
334.4 K, 10000 kPa	–	0.167	–
334.4 K, 20000 kPa	–	0.169	–
353.15 K, 100 kPa	1107.1	–	21.2
353.15 K, 5000 kPa	1109.9	–	22.3
353.15 K, 10000 kPa	1112.7	–	22.7
353.15 K, 15000 kPa	1115.5	–	23.9
353.15 K, 20000 kPa	1118.3	–	24.3
